Experimental data published in patent US4469704A, “2,3-Butanediol diester derivatives, process for producing the same, and an antiulcer drug containing the same” (SS Pharmaceutical Co., Ltd., priority 1980, dated 1984).
Where two headings read alike, the source gives them in different places.

Tests used:
ulcer = experiment: Antiulcer action: inhibition of indomethacin-induced gastric ulcer (ulcer index) in rats; assay type: in vivo, Wister male rats; conditions: Rattus norvegicus, 1 h before indomethacin (25 mg/kg orally), read-out: Inhibition ratio
Method: Wister male rats each weighing about 200 g were given, after fasting for 24 hours, orally 25 mg/kg of indomethacin suspended in 1% aq. solution of sodium carboxymethylcellulose. Five hours later, 1 ml of physiological saline containing 2% brilliant blue was injected intravenously on their tails, and 10 minutes later, they were slaughtered and their stomachs were removed. After fixation by injecting 12 ml of 1% formalin aq. solution, the stomachs were extended on a flat plate and the injured parts on the stomach was measured with slide calipers. The sum of the lengths in mm was regarded as the ulcer index.
The test compound was emulsified or suspended in physiological saline containing one drop of polysolvate 80, and this was given orally or subcutaneously on the back one hour before administration of indomethacin.
The ulcer inhibition ratio was obtained from the following formula.
Inhibition ratio (%)=A/B×100
A: (ulcer index of control group)--(ulcer index of test group given the test compound)
B: (ulcer index of control group)

[1] = Acute toxicity, intraperitoneal, 7 days observation; assay type: in vivo; conditions: mouse, ip; ddy male mice, intraperitoneally, dissolved in cotton seed oil, observation for seven days
Method: (§1) ddy male mice, arranged in groups each consisting of five mice, were given intraperitoneally 1000 mg/kg of the test compounds Nos. 1-4, 8-10, 14-18, 21, 22, 24, 25, 28, 31, 34, 35, 37, 45, 46, 48, 54, 57, 60, 62, 64, 68, 70, and 71 (as shown in Table 1) dissolved in cotton seed oil.

ddy male mice = experiment: as above; assay type: in vivo; conditions: 1000 mg/kg intraperitoneally, groups of five ddy male mice
Method: as §1

tumor = conditions: Japanese Patent Publication No. 36-13349; cited from earlier work

| Compound | inhibition in vivo at 200 mg/kg (ulcer; sc, subcutaneously, 5 rats) | LD50 at 168 h [1] | survival / anomaly after seven days (ddy male mice) | inhibition in vivo at 200 mg/kg (ulcer; po, orally, 4 rats) | inhibition in vivo at 300 mg/kg (ulcer; sc, 300 mg/kg, subcutaneously, 5 rats) | antitumor effect (tumor) |
| --- | --- | --- | --- | --- | --- | --- |
| CCCCCCCC(=O)OC(C)C(C)OC(=O)CCCCCCC (centres unmarked) [Compound No. 1] | 92% |  |  |  |  |  |
| CCCCCCCCC(=O)OC(C)C(C)OC(=O)CCCCCCCC (centres unmarked) [Compound No. 2] | 90% |  |  |  |  |  |
| CCCCCCCCCC(=O)OC(C)C(C)OC(=O)CCCCCCCCC (centres unmarked) [Compound No. 3] | 50% |  |  |  |  |  |
| CCCCCCCCCCC(=O)OC(C)C(C)OC(=O)CCCCCCCCCC (centres unmarked) [Compound No. 4] | 74% |  |  |  |  |  |
| CCCCCCCCCCCCCC(=O)OC(C)C(C)OC(=O)CCCCCCCCCCCCC (centres unmarked) [Compound No. 6] | 57% |  |  |  |  |  |
| CCCCCCCCCCCCCCCC(=O)OC(C)C(C)OC(=O)CCCCCCCCCCCCCCC (centres unmarked) [Compound No. 7] | 30% |  |  |  |  |  |
| CCCCCC(=O)OC(C)C(C)OC(=O)C=Cc1ccccc1 (centres unmarked) [Compound No. 22] | 91% | > 1000 mg/kg | all the mice lived without any anomaly |  |  |  |
| CCCCCCCCCC(=O)OC(C)C(C)OC(=O)C=Cc1ccccc1 (centres unmarked) [Compound No. 25] | 95% | > 1000 mg/kg | all the mice lived without any anomaly |  |  |  |
| CCCCCC(=O)OC(C)C(C)OC(=O)C=Cc1ccc(C)cc1 (centres unmarked) [Compound No. 31] | 91% | > 1000 mg/kg | all the mice lived without any anomaly |  |  |  |
| CCCCCCCCCCC(=O)OC(C)C(C)OC(=O)C=Cc1ccc(OC)cc1 (centres unmarked) [Compound No. 35] | 77% | > 1000 mg/kg | all the mice lived without any anomaly |  |  |  |
| CCCCCCCCCCC(=O)OC(C)C(C)OC(=O)C=Cc1cc(OC)c(OC)c(OC)c1 (centres unmarked) [Compound No. 40] | 99% |  |  |  |  |  |
| CCCCCC(=O)OC(C)C(C)OC(=O)c1cc(OC)c(OC)c(OC)c1 (centres unmarked) [Compound No. 62] | 50% | > 1000 mg/kg | all the mice lived without any anomaly |  |  |  |
| CCCCCCCCCCC(=O)OC(C)C(C)OC(=O)c1cc(OC)c(OC)c(OC)c1 (centres unmarked) [Compound No. 68] | 89.3% | > 1000 mg/kg | all the mice lived without any anomaly |  |  |  |
| CCCCCCCCCCC(=O)OC(C)C(C)OC(=O)CCc1ccccc1 (centres unmarked) [Compound No. 70] | 45.9% | > 1000 mg/kg | all the mice lived without any anomaly |  |  |  |
| CCCCCCCCCCC(=O)OC(C)C(C)OC(=O)COc1ccccc1 (centres unmarked) [Compound No. 71] | 59.2% | > 1000 mg/kg | all the mice lived without any anomaly |  |  |  |
| CCCCCC=CCC=CCCCCCCCC(=O)OC(C)C(C)OC(=O)CCCCCCCC=CCC=CCCCCC (centres unmarked) [compound 15] | 47% |  |  |  |  |  |

| Compound | inhibition in vivo at 200 mg/kg (ulcer; sc, subcutaneously, 5 rats) | LD50 at 168 h [1] | survival / anomaly after seven days (ddy male mice) | inhibition in vivo at 200 mg/kg (ulcer; po, orally, 4 rats) | inhibition in vivo at 300 mg/kg (ulcer; sc, 300 mg/kg, subcutaneously, 5 rats) | antitumor effect (tumor) |
| --- | --- | --- | --- | --- | --- | --- |
| CCC=CCC=CCC=CCCCCCCCC(=O)OC(C)C(C)OC(=O)CCCCCCCC=CCC=CCC=CCC (centres unmarked) [compound 16] | 86% |  |  |  |  |  |
| CCCCCCCCCCC(=O)OC(C)C(C)OC(=O)CCCCC (centres unmarked) [compound 17] | 37% |  |  |  |  |  |
| CCCCCCCC/C=C\CCCCCCCC(=O)OC(C)C(C)OC(=O)CCCCCCCCCC (centres unmarked) [compound 21] |  | > 1000 mg/kg | all the mice lived without any anomaly |  |  |  |
| CCCCCCCCC(=O)OC(C)C(C)OC(=O)C=Cc1ccccc1 (centres unmarked) [compound 24] | 90% | > 1000 mg/kg | all the mice lived without any anomaly |  |  |  |
| C=CCCCCCCCCC(=O)OC(C)C(C)OC(=O)C=Cc1ccccc1 (centres unmarked) [compound 28] | 62% | > 1000 mg/kg | all the mice lived without any anomaly |  |  |  |
| CCCCCC(=O)OC(C)C(C)OC(=O)C=Cc1ccc(OC)cc1 (centres unmarked) [compound 34] | 75% | > 1000 mg/kg | all the mice lived without any anomaly |  |  |  |
| CCCCCC(=O)OC(C)C(C)OC(=O)C=Cc1ccc(Cl)cc1 (centres unmarked) [compound 37] | 85% | > 1000 mg/kg | all the mice lived without any anomaly |  |  |  |
| CCCCCCCC(=O)OC(C)C(C)OC(=O)C(C#N)=Cc1ccccc1 (centres unmarked) [compound 45] | 84% | > 1000 mg/kg | all the mice lived without any anomaly |  |  |  |
| CCCCCCCCC(=O)OC(C)C(C)OC(=O)C(C#N)=Cc1ccccc1 (centres unmarked) [compound 46] | 56% | > 1000 mg/kg | all the mice lived without any anomaly |  |  |  |
| CCCCCCCCCCC(=O)OC(C)C(C)OC(=O)C(C#N)=Cc1ccccc1 (centres unmarked) [compound 48] |  | > 1000 mg/kg | all the mice lived without any anomaly | 84% | 96% |  |
| CCCCCC(=O)OC(C)C(C)OC(=O)C(C)=Cc1ccccc1 (centres unmarked) [compound 54] | 87% | > 1000 mg/kg | all the mice lived without any anomaly |  |  |  |
| CC(=Cc1ccccc1)C(=O)OC(C)C(C)OC(=O)C(C)=Cc1ccccc1 (centres unmarked) [compound 57] | 80% | > 1000 mg/kg | all the mice lived without any anomaly |  |  |  |
| CCCCCC(=O)OC(C)C(C)OC(=O)c1ccc(OC)cc1 (centres unmarked) [compound 60] | 41.4% | > 1000 mg/kg | all the mice lived without any anomaly |  |  |  |
| CCCCCCCCCCC(=O)OC(C)C(C)OC(=O)c1ccccc1 (centres unmarked) [compound 64] | 41.3% | > 1000 mg/kg | all the mice lived without any anomaly |  |  |  |
| coixenolide |  |  |  |  |  | has an antitumor effect |
